Experimental data published in PubChem BioAssay (NCI).
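Briefly, cells in 96-well plates were exposed to five compound concentrations for 48 h, and endpoints were estimated by linear interpolation. GI50: concentration for 50% inhibition of growth. TGI: concentration producing complete growth inhibition.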

Assays:
Assay in all cases: NCI-60 cell line screen, 48 h
786-0 renal = system: 786-0 renal
A498 renal = system: A498 renal
A549 NSCLC = system: A549 NSCLC
ACHN renal = system: ACHN renal
BT-549 breast = system: BT-549 breast
CAKI-1 renal = system: CAKI-1 renal
CCRF-CEM leukemia = system: CCRF-CEM leukemia
COLO 205 colon = system: COLO 205 colon
DU-145 prostate = system: DU-145 prostate
EKVX NSCLC = system: EKVX NSCLC
HCC-2998 colon = system: HCC-2998 colon
HCT-15 colon = system: HCT-15 colon
HL-60(TB) leukemia = system: HL-60(TB) leukemia
HOP-62 NSCLC = system: HOP-62 NSCLC
HOP-92 NSCLC = system: HOP-92 NSCLC
HS 578T breast = system: HS 578T breast
HT29 colon = system: HT29 colon
IGROV1 ovarian = system: IGROV1 ovarian
K-562 leukemia = system: K-562 leukemia
KM12 colon = system: KM12 colon
LOX IMVI melanoma = system: LOX IMVI melanoma
M14 melanoma = system: M14 melanoma
MALME-3M melanoma = system: MALME-3M melanoma
MCF7 breast = system: MCF7 breast
MDA-MB-231 breast = system: MDA-MB-231 breast
MDA-MB-435 = system: MDA-MB-435
MDA-MB-468 breast = system: MDA-MB-468 breast
MOLT-4 leukemia = system: MOLT-4 leukemia
NCI-H226 lung = system: NCI-H226 lung
NCI-H23 lung = system: NCI-H23 lung
NCI-H460 lung = system: NCI-H460 lung
NCI-H522 lung = system: NCI-H522 lung
NCI/ADR-RES ovarian = system: NCI/ADR-RES ovarian
OVCAR-3 ovarian = system: OVCAR-3 ovarian
OVCAR-4 ovarian = system: OVCAR-4 ovarian
OVCAR-5 ovarian = system: OVCAR-5 ovarian
OVCAR-8 ovarian = system: OVCAR-8 ovarian
PC-3 prostate = system: PC-3 prostate
RPMI-8226 leukemia = system: RPMI-8226 leukemia
RXF 393 renal = system: RXF 393 renal
SF-268 CNS = system: SF-268 CNS
SF-295 CNS = system: SF-295 CNS
SF-539 CNS = system: SF-539 CNS
SK-MEL-2 melanoma = system: SK-MEL-2 melanoma
SK-MEL-28 melanoma = system: SK-MEL-28 melanoma
SK-MEL-5 melanoma = system: SK-MEL-5 melanoma
SK-OV-3 ovarian = system: SK-OV-3 ovarian
SN12C renal = system: SN12C renal
SNB-19 CNS = system: SNB-19 CNS
SR leukemia = system: SR leukemia
SW-620 colon = system: SW-620 colon
T-47D breast = system: T-47D breast
TK-10 renal = system: TK-10 renal
U251 CNS = system: U251 CNS
UACC-257 melanoma = system: UACC-257 melanoma
UACC-62 melanoma = system: UACC-62 melanoma
UO-31 renal = system: UO-31 renal

COc1ccc(C(=O)/C=C/c2ccc(Cl)c(Cl)c2)cc1S(N)(=O)=O
GI50 (786-0 renal): 1.62 µM | TGI (786-0 renal): 3.11 µM | GI50 (A498 renal): 8.86 µM | TGI (A498 renal): 22.1 µM | GI50 (A549 NSCLC): 2.17 µM | TGI (A549 NSCLC): 10.5 µM | GI50 (ACHN renal): 1.71 µM | TGI (ACHN renal): 3.11 µM | GI50 (BT-549 breast): 1.63 µM | TGI (BT-549 breast): 3.33 µM | GI50 (CAKI-1 renal): 1.75 µM | TGI (CAKI-1 renal): 4.19 µM | GI50 (CCRF-CEM leukemia): 2.7 µM | TGI (CCRF-CEM leukemia): 7.95 µM | GI50 (COLO 205 colon): 1.83 µM | TGI (COLO 205 colon): 3.43 µM | GI50 (DU-145 prostate): 3.5 µM | TGI (DU-145 prostate): 12.8 µM | GI50 (EKVX NSCLC): 2.12 µM | TGI (EKVX NSCLC): 4.73 µM | GI50 (HCC-2998 colon): 1.4 µM | TGI (HCC-2998 colon): 2.71 µM | GI50 (HCT-15 colon): 0.496 µM | TGI (HCT-15 colon): 1.81 µM | GI50 (HL-60(TB) leukemia): 1.88 µM | TGI (HL-60(TB) leukemia): 6.31 µM | GI50 (HOP-62 NSCLC): 1.89 µM | TGI (HOP-62 NSCLC): 4.75 µM | GI50 (HOP-92 NSCLC): 2.29 µM | TGI (HOP-92 NSCLC): 7.31 µM | GI50 (HS 578T breast): 6.01 µM | TGI (HS 578T breast): 52 µM | GI50 (HT29 colon): 1.46 µM | TGI (HT29 colon): 2.77 µM | GI50 (IGROV1 ovarian): 2 µM | TGI (IGROV1 ovarian): 5.13 µM | GI50 (K-562 leukemia): 2.03 µM | TGI (K-562 leukemia): 10.8 µM | GI50 (KM12 colon): 0.888 µM | TGI (KM12 colon): 2.43 µM | GI50 (LOX IMVI melanoma): 0.653 µM | TGI (LOX IMVI melanoma): 1.93 µM | GI50 (M14 melanoma): 1.86 µM | TGI (M14 melanoma): 3.9 µM | GI50 (MALME-3M melanoma): 2.15 µM | TGI (MALME-3M melanoma): 5.17 µM | GI50 (MCF7 breast): 1.05 µM | TGI (MCF7 breast): 3.16 µM | GI50 (MDA-MB-231 breast): 1.99 µM | TGI (MDA-MB-231 breast): 4.11 µM | GI50 (MDA-MB-435): 2.42 µM | TGI (MDA-MB-435): 7.26 µM | GI50 (MDA-MB-468 breast): 1.47 µM | TGI (MDA-MB-468 breast): 2.98 µM | GI50 (MOLT-4 leukemia): 2.35 µM | TGI (MOLT-4 leukemia): 6.75 µM | GI50 (NCI-H226 lung): 3.04 µM | TGI (NCI-H226 lung): 13.4 µM | GI50 (NCI-H23 lung): 1.75 µM | TGI (NCI-H23 lung): 3.43 µM | GI50 (NCI-H460 lung): 2.72 µM | TGI (NCI-H460 lung): 8.22 µM | GI50 (NCI-H522 lung): 1.58 µM | TGI (NCI-H522 lung): 3.16 µM | GI50 (NCI/ADR-RES ovarian): 2.25 µM | TGI (NCI/ADR-RES ovarian): 5.93 µM | GI50 (OVCAR-3 ovarian): 1.19 µM | TGI (OVCAR-3 ovarian): 2.55 µM | GI50 (OVCAR-4 ovarian): 1.6 µM | TGI (OVCAR-4 ovarian): 2.97 µM | GI50 (OVCAR-5 ovarian): 1.6 µM | TGI (OVCAR-5 ovarian): 3.34 µM | GI50 (OVCAR-8 ovarian): 2 µM | TGI (OVCAR-8 ovarian): 5.75 µM | GI50 (PC-3 prostate): 1.86 µM | TGI (PC-3 prostate): 5.07 µM | GI50 (RPMI-8226 leukemia): 1.67 µM | TGI (RPMI-8226 leukemia): 5.96 µM | GI50 (RXF 393 renal): 1.74 µM | TGI (RXF 393 renal): 3.5 µM | GI50 (SF-268 CNS): 2.91 µM | TGI (SF-268 CNS): 11.9 µM | GI50 (SF-295 CNS): 1.74 µM | TGI (SF-295 CNS): 3.77 µM | GI50 (SF-539 CNS): 1.67 µM | TGI (SF-539 CNS): 3.25 µM | GI50 (SK-MEL-2 melanoma): 5.66 µM | TGI (SK-MEL-2 melanoma): 18.6 µM | GI50 (SK-MEL-28 melanoma): 1.75 µM | TGI (SK-MEL-28 melanoma): 3.26 µM | GI50 (SK-MEL-5 melanoma): 2.45 µM | TGI (SK-MEL-5 melanoma): 6.89 µM | GI50 (SK-OV-3 ovarian): 5.53 µM | TGI (SK-OV-3 ovarian): 18 µM | GI50 (SN12C renal): 1.39 µM | TGI (SN12C renal): 2.74 µM | GI50 (SNB-19 CNS): 1.88 µM | TGI (SNB-19 CNS): 4.21 µM | GI50 (SR leukemia): 0.797 µM | TGI (SR leukemia): 10.2 µM | GI50 (SW-620 colon): 1.34 µM | TGI (SW-620 colon): 3.52 µM | GI50 (T-47D breast): 1.97 µM | TGI (T-47D breast): 5.57 µM | GI50 (TK-10 renal): 2.02 µM | TGI (TK-10 renal): 5.89 µM | GI50 (U251 CNS): 1.41 µM | TGI (U251 CNS): 2.93 µM | GI50 (UACC-257 melanoma): 2.5 µM | TGI (UACC-257 melanoma): 8.99 µM | GI50 (UACC-62 melanoma): 1.48 µM | TGI (UACC-62 melanoma): 2.96 µM | GI50 (UO-31 renal): 1.27 µM | TGI (UO-31 renal): 2.52 µM

O=C(Nc1ccc(Nc2ccncc2)cc1)c1ccc(Nc2ccnc3ccc([N+](=O)[O-])cc23)cc1[N+](=O)[O-]
GI50 (MDA-MB-468 breast): 1.75 µM | TGI (MDA-MB-468 breast): 18.3 µM

COc1cc(C(=O)O/N=C(\N)Cc2cccc3ccccc23)cc(OC)c1OC
GI50 (MDA-MB-468 breast): 15.7 µM | TGI (MDA-MB-468 breast): 33.2 µM

COc1cc(-c2nc(-c3ccc(-c4nc5ccc(F)cc5[nH]4)cc3)no2)cc(OC)c1OC
GI50 (MDA-MB-468 breast): 3.01 µM | TGI (MDA-MB-468 breast): 17.5 µM

CCOC(=O)c1ccccc1SC(C[N+](=O)[O-])c1ccccc1 (configuration not stated)
GI50 (MDA-MB-468 breast): 1.71 µM | TGI (MDA-MB-468 breast): 4.06 µM

COC1C(CO)OC(n2c3c(Cl)cccc3c3c4c(c5c6cccc(Cl)c6[nH]c5c32)C(=O)NC4=O)C(O)C1O (configuration not stated)
GI50 (MDA-MB-468 breast): 0.0743 µM | TGI (MDA-MB-468 breast): 0.352 µM

COc1cc(/C(=C2/O[C@@H]([C@H]3COC(C)(C)O3)[C@H]3OC(C)(C)O[C@@H]23)c2ccc3c(c2)OCO3)cc(OC)c1OC
GI50 (MDA-MB-468 breast): 7.93 µM | TGI (MDA-MB-468 breast): > 25 µM

Oc1ccc(Oc2cnc3cc(Cl)ccc3n2)cc1
GI50 (MDA-MB-468 breast): 26.3 µM | TGI (MDA-MB-468 breast): > 100 µM

Cc1ccc(-c2cc(-c3ccc(C)cc3)nc(N3CCN(CCNc4ccnc5cc(Cl)ccc45)CC3)n2)cc1
GI50 (MDA-MB-468 breast): 1.74 µM | TGI (MDA-MB-468 breast): 8.3 µM

COc1cnc2c(c1)C(=O)c1c-2n(CCCNCCN2CCOCC2)c(=O)c2cc([N+](=O)[O-])ccc12
GI50 (MDA-MB-468 breast): 0.124 µM | TGI (MDA-MB-468 breast): 0.605 µM

COc1ccc(-c2nc(-c3ccccn3)c(-c3ccccn3)n2CC(C)C)cc1OC1CCCC1
GI50 (MDA-MB-468 breast): 38.4 µM | TGI (MDA-MB-468 breast): 136 µM

CC(C)=CC(=O)N[C@@H]1CC2CCC3C(CC[C@@]4(C)C3CC[C@@H]4C(C)N(C)C)[C@@]2(C)C[C@@H]1O (some centres not stated)
GI50 (MDA-MB-468 breast): 1.54 µM | TGI (MDA-MB-468 breast): 8.98 µM

CC[C@H](C)[C@H]1NC(=O)[C@@H]([C@H](O)C(C)C)NC(=O)[C@@H](C)N(C)C(=O)[C@H](C)N(C)C(=O)[C@H](CC(C)C)NC(=O)[C@H](CC(C)C)N(C)C(=O)[C@H](C)N(C)C1=O
GI50 (MDA-MB-468 breast): 0.536 µM | TGI (MDA-MB-468 breast): 10.5 µM

O=C(Nc1ccc(Oc2ccc(NC(=O)Nc3ccc([N+](=O)[O-])cc3)cc2)cc1)Nc1ccc([N+](=O)[O-])cc1
GI50 (MDA-MB-468 breast): 1.56 µM | TGI (MDA-MB-468 breast): 14.1 µM

C[C@@H](Oc1cc(-n2cnc3ccc(OCC4CCN(C)CC4)cc32)sc1C(N)=O)c1ccccc1Cl
GI50 (MDA-MB-468 breast): 0.0093 µM | TGI (MDA-MB-468 breast): 0.22 µM

CCCCCCCCCCC[C@@H](C[C@H]1OC(=O)[C@H]1CCCCCC)OC(=O)[C@@H](CC(C)C)NC=O
GI50 (MDA-MB-468 breast): 14.1 µM | TGI (MDA-MB-468 breast): 48.3 µM

COc1ccc2c(c1)[nH]c(=O)c1c3cc(OC)c(OC)cc3cn21
GI50 (MDA-MB-468 breast): 0.0208 µM | TGI (MDA-MB-468 breast): 0.0492 µM

Fc1ccc([C@@H]2CCNC[C@H]2COc2ccc3c(c2)OCO3)cc1
GI50 (MDA-MB-468 breast): 5.33 µM | TGI (MDA-MB-468 breast): 21 µM

O=C1/C(=C/c2ccc(Cl)cc2)CN(C(=O)CCN2CCC(=NO)CC2)C/C1=C\c1ccc(Cl)cc1
GI50 (MDA-MB-468 breast): 0.833 µM | TGI (MDA-MB-468 breast): 2.51 µM

Cc1cc(NCc2cc(Nc3ccnc4cc(Cl)ccc34)ccc2F)nc(N2CCSCC2)n1
GI50 (MDA-MB-468 breast): 1.92 µM | TGI (MDA-MB-468 breast): 4.77 µM
